Source: patent publication US9169199B2, “Cycloalkyl guanidine F1F0-ATPase inhibitors and therapeutic uses thereof” (Lycera Corporation, priority 2010, dated 2015)

How the values were obtained:
F1F0-ATPase = biological target: T1, F1F0-ATPase (Bos taurus, UniProt P13621); experiment: Inhibition of ATP synthesis by the F1F0-ATPase; assay type: biochemical
T1 construct: from tissue
Experimental: (§1) Compounds in Example 4 above were tested for activity against F1F0-ATPase by measuring ATP synthesis. In addition, the compounds were assessed for cytotoxicity in Ramos cells. Inhibition of ATP synthesis by the F1F0-ATPase and cytotoxicity in Ramos cells were measured according to the procedures described in K. M. Johnson et al. Chemistry & Biology 2005, 12, 485-496.

Ramos cells = experiment: Cytotoxicity in Ramos cells; assay type: cell-based; details: Homo sapiens, read-out: Ramos cell EC50
Experimental: as §1

Compound | IC50 (F1F0-ATPase) | EC50 (Ramos cells)
CC(C)(C)CN/C(=N/C(=O)c1ccc(F)c(F)c1)N[C@H]1CC[C@H](NC(=O)c2ccccc2)CC1 [Compound 142] | < 10 µM | < 10 µM
O=C(/N=C(/NC1CCCC1)N[C@H]1CC[C@H](Nc2ncccn2)CC1)c1ccc(Cl)c(F)c1 [Compound 143] | < 10 µM | < 10 µM
CC(C)(C)CN/C(=N/C(=O)c1ccc(Cl)c(F)c1)N[C@H]1CC[C@H](Nc2ncccn2)CC1 [Compound 144] | < 10 µM | < 10 µM
CCOC(=O)NC1CCC(N/C(=N\C(=O)c2ccc(F)c(S(C)(=O)=O)c2)NCc2ccc(F)cc2Cl)CC1 (centres unmarked) [Compound 145] | > 10 µM | > 10 µM
CCOC(=O)NC1CCC(N/C(=N\C(=O)c2ccc(F)c(S(C)(=O)=O)c2)Nc2cc(F)cc(Cl)c2)CC1 (centres unmarked) [Compound 146] | > 10 µM | > 10 µM
COC(=O)NC1CCC(N/C(=N\C(=O)c2ccc(C)cc2)Nc2cc(F)cc(Cl)c2)CC1 (centres unmarked) [Compound 147] | < 10 µM | < 10 µM
Cc1ccc(C(=O)/N=C(/Nc2cc(F)cc(Cl)c2)NC2CCC(NC(=O)c3ccccc3)CC2)cc1 (centres unmarked) [Compound 148] | < 10 µM | < 10 µM
CCOC(=O)NC1CCC(N/C(=N\C(=O)c2ccccc2)Nc2cc(F)cc(Cl)c2)CC1 (centres unmarked) [Compound 149] | < 10 µM | < 10 µM
COC(=O)NC1CCC(N/C(=N\C(=O)c2ccccc2)Nc2cc(F)cc(Cl)c2)CC1 (centres unmarked) [Compound 150] | < 10 µM | > 10 µM
O=C(/N=C(/Nc1cc(F)cc(Cl)c1)NC1CCC(NC(=O)c2ccccc2)CC1)c1ccccc1 (centres unmarked) [Compound 151] | < 10 µM | < 10 µM
CCOC(=O)NC1CCC(N/C(=N\C(=O)c2ccc(OC)cc2)Nc2cc(F)cc(Cl)c2)CC1 (centres unmarked) [Compound 152] | < 10 µM | < 10 µM
COC(=O)NC1CCC(N/C(=N\C(=O)c2ccc(OC)cc2)Nc2cc(F)cc(Cl)c2)CC1 (centres unmarked) [Compound 153] | < 10 µM | < 10 µM
COc1ccc(C(=O)/N=C(/Nc2cc(F)cc(Cl)c2)NC2CCC(NC(=O)c3ccccc3)CC2)cc1 (centres unmarked) [Compound 154] | < 10 µM | < 10 µM
CCOC(=O)NC1CCC(N/C(=N\C(=O)c2cccc(OC)c2)Nc2cc(F)cc(Cl)c2)CC1 (centres unmarked) [Compound 155] | < 10 µM | < 10 µM
COC(=O)NC1CCC(N/C(=N\C(=O)c2cccc(OC)c2)Nc2cc(F)cc(Cl)c2)CC1 (centres unmarked) [Compound 156] | < 10 µM | < 10 µM
COc1cccc(C(=O)/N=C(/Nc2cc(F)cc(Cl)c2)NC2CCC(NC(=O)c3ccccc3)CC2)c1 (centres unmarked) [Compound 157] | < 10 µM | < 10 µM

Compound | IC50 (F1F0-ATPase) | EC50 (Ramos cells)
CCOC(=O)NC1CCC(N/C(=N\C(=O)c2ccc(C)cc2)Nc2cc(F)cc(Cl)c2)CC1 (centres unmarked) [Compound 158] | < 10 µM | < 10 µM
CCOC(=O)NC1CCC(N/C(=N\C(=O)c2cccc(C)c2)Nc2cc(F)cc(Cl)c2)CC1 (centres unmarked) [Compound 159] | < 10 µM | < 10 µM
CCOC(=O)NC1CCC(N/C(=N\C(=O)c2ccc(C)c(F)c2)Nc2cc(F)cc(Cl)c2)CC1 (centres unmarked) [Compound 160] | < 10 µM | < 10 µM
CCOC(=O)NC1CCC(N/C(=N\C(=O)c2ccc(F)c(C)c2)Nc2cc(F)cc(Cl)c2)CC1 (centres unmarked) [Compound 161] | < 10 µM | < 10 µM
CC(C)(C)OC(=O)NC1CCC(NC(=NC(=O)c2ccc(Cl)cc2)NC2CCC(NC(=O)OC(C)(C)C)CC2)CC1 (centres unmarked) [Compound 162] | > 10 µM | > 10 µM
O=C(/N=C(/Nc1cc(F)cc(Cl)c1)NC1CCC(NC(=O)N2CCCC2)CC1)c1ccc(Cl)cc1 (centres unmarked) [Compound 163] | < 10 µM | < 10 µM
O=C(/N=C(/Nc1cc(F)cc(Cl)c1)NC1CCC(NC(=O)c2ccccc2)CC1)c1ccc(Cl)cc1 (centres unmarked) [Compound 164] | < 10 µM | < 10 µM
CCOC(=O)NC1CCC(N/C(=N\C(=O)c2ccc(Cl)cc2)Nc2cc(F)cc(Cl)c2)CC1 (centres unmarked) [Compound 165] | < 10 µM | < 10 µM
COC(=O)NC1CCC(N/C(=N\C(=O)c2ccc(Cl)cc2)Nc2cc(F)cc(Cl)c2)CC1 (centres unmarked) [Compound 166] | < 10 µM | < 10 µM
CC(C)(C)OC(=O)NC1CCC(N/C(=N\C(=O)c2ccc(F)c(F)c2)Nc2cc(F)cc(Cl)c2)CC1 (centres unmarked) [Compound 167] | < 10 µM | < 10 µM
O=C(/N=C(/Nc1cc(F)cc(Cl)c1)NC1CCC(NC(=O)c2nccs2)CC1)c1ccc(F)c(F)c1 (centres unmarked) [Compound 168] | < 10 µM | < 10 µM
O=C(/N=C(/Nc1cc(F)cc(Cl)c1)NC1CCC(NC(=O)c2cccnc2)CC1)c1ccc(F)c(F)c1 (centres unmarked) [Compound 169] | < 10 µM | < 10 µM
O=C(/N=C(/Nc1cc(F)cc(Cl)c1)NC1CCC(NC(=O)c2cscn2)CC1)c1ccc(F)c(F)c1 (centres unmarked) [Compound 170] | < 10 µM | < 10 µM
O=C(/N=C(/Nc1cc(F)cc(Cl)c1)NC1CCC(NC(=O)c2ccccn2)CC1)c1ccc(F)c(F)c1 (centres unmarked) [Compound 171] | < 10 µM | < 10 µM
O=C1CCC(N/C(=N\C(=O)c2ccc(C(F)(F)F)cc2)Nc2cc(F)cc(Cl)c2)CC1 [Compound 172] | < 10 µM | < 10 µM
